Assay results as given in publication PMC9104013, “Role of Polyamine-Induced Dimerization of Antizyme in Its Cellular Functions” (International Journal of Molecular Sciences, 2022).

Experiments:
[1] = test system: 72-mer-2'-O-Me-oligoribonucleotide L-OM, containing the +1 frameshift site, hairpin and pseudoknot of the mOAZ1 mRNA; experiment: RNA melting point (UV thermal denaturation); format: binding, mouse; details: for Tm: 1 μM L-OM, 50 mM Tris-HCl pH 7.5, 50 mM NaCl
Protocol: UV thermal denaturation data were obtained on a Hitachi U-2900 spectrophotometer equipped with a Peltier temperature controller. The concentration of model 72-mer-2′-O-Me-oligoribonucleotide L-OM, containing the +1 frameshift site, hairpin, and pseudoknot of the mOAZ1 mRNA was 1 µM. Samples were dissolved in 50 mM Tris-HCl, pH 7.5 and 50 mM NaCl buffer. Concentration of oligonucleotide was determined after quantitating the samples by UV absorbance at λ = 260 nm. Samples were heated to 90 °C for 10 min then cooled slowly to room temperature and stored at 5 °C for at least 18 h before the measurements were performed. Denaturation curves were acquired at 260 nm for the duplexes at a rate of 0.5 °C/min, within a range of 30–90 °C. The Tm values were determined from polynomial fitting of the observed curves and taken as the temperatures corresponding to half-dissociation of complex. The first derivative of absorption with respect to temperature, dA/dT, of the melting curve was computer-generated by the GraphPad Prism 7.0 software and used for the determining of Tm.

[2] = test system: spermine synthase (SpmSy); set-up: method as in PMID 21639123; details: cited from earlier work
[3] = test system: transgenic rats with activated polyamine catabolism; set-up: method as in PMID 12181316, PMID 19956991, PMID 20453551; details: cited from earlier work
OAZ1 protein = OAZ1 protein levels in DU145 cells (Western blotting); format: cell-based; details: 4 h, 100 μM, MG132 25 μM
Protocol: (§1) Figure 3 2-MeSpd is the weakest inducer of OAZ1 synthesis and the weakest downregulator of ODC in DU145 cells. (A) Uptake of Spd and its analogues in CHX-treated DU145 cells. After 2 h preincubation with CHX (100 µg/mL), the compounds (100 µM) were added, and incubation continued for 4 h before the analysis of the intracellular analogue concentration. (B) Uptake of Spd and its analogues in OAZ1-overexpressing DU145 cells. OAZ1 was induced by 24 h preincubation with DOX (250 ng/mL). The compounds (100 µM) were added for further 6 h before the analysis of intracellular analogue concentration. (C) Effect of Spd and the analogues on OAZ1 protein levels in DU145 cells. The cells were incubated for 4 h with 100 μM analogues in the presence of the proteasomal inhibitor, MG132 (25 μM). (D) Effect of Spd and the analogues on ODC activity in DU145 cells. […]
(§2) Polyamines were measured with HPLC according to the published method. Acid-precipitated pellets were dissolved to 0.1 M NaOH, and the amount of DNA was measured using the PicoGreen reagent (Invitrogen) according to manufacturer’s instructions using dilutions of calf thymus DNA (Sigma-Aldrich) as standard curve. Protein concentrations were measured using Bio-Rad protein kit with dilutions of bovine serum albumin (Bio-Rad, Hercules, CA, USA) as standards. ODC activities were measured from the cytosolic fractions as described earlier. […]

[4] = test system: OAZ1-overexpressing DU145 cells; experiment: Uptake of Spd and its analogues in OAZ1-overexpressing DU145 cells; format: cell-based; details: DOX 250 ng/mL 24 h, compounds 100 µM, 6 h
Protocol: as §1, §2

[5] = test system: polyamine uptake in OAZ1-overexpressing DU145 cells; experiment: [14C]-Put and -Spd uptake in OAZ1-overexpressing DU145 cells; format: cell-based; details: DFMO 5 mM 3 days, DOX 1 μg/mL 2 days, analogue 100 μM 4 h with APCHA 50 μM, AG 1 mM; 20 min uptake
Protocol: OAZ1-overexpressing DU145 cells were plated onto 6-well plates and incubated overnight. The cells were first treated with DFMO (5 mM) for 3 days, after which DOX (1 μg/mL) was added for further 2 days to induce OAZ1 overexpression. Then, AG (1 mM), APCHA (50 μM), and Spd/analogue (100 μM) were added for 4 h. The plates were washed with warm DMEM and incubated for 20 min in [^14C]-Put or [^14C]-Spd labeling mix (10 μM Put/Spd, specific activity 25 mCi/mmol, in DMEM). The plates were washed twice with ice-cold PBS and lysed to 0.5 mL of 0.1 M NaOH. An aliquot was taken for measurement of ^14C radioactivity, and the counts were normalized to total protein in the sample.

[6] = polyamine concentration 20 μM, without polyamine 65.5±0.6

SMILES	Tm [1, 6] [°C]	Tm ([1]; polyamine concentration 50 μM) [°C]	Tm ([1]; polyamine concentration 200 μM) [°C]	Substrate of spermine synthase (SpmSy) [2]	Acute pancreatitis [3]	Liver regeneration [3]	OAZ1 protein level induction (OAZ1 protein)	Tm lower compared with Spd and the other analogues [1]	Uptake upon DOX-induced expression of OAZ1 [4]	Downregulation of [^14C]-Put uptake [5]	Downregulation of [^14C]-Spd uptake [5]
CC(N)CCNCCCCN (centres unmarked) [1-MeSpd]	73.0±0.4	74.0±0.3	80.2±0.6	is a substrate of spermine synthase	prevented acute pancreatitis	restored liver regeneration	–	–	–	–	–
NCCCCNCCCN [Spd, spermidine]	73.7±0.6	75.3±0.4	79.7±1.1	–	–	–	clear induction	–	–	–	–
CC(CCN)NCCCCN (centres unmarked) [3-MeSpd]	71.9±0.5	75.2±0.4	79.4±0.5	not a substrate of either SSAT or SpmSy	–	–	–	–	–	–	–
CC(CN)CNCCCCN (centres unmarked) [2-MeSpd]	70.5±0.5	73.4±0.4	77.5±0.5	substrate of both SSAT and SpmSy	–	–	only marginally induced	2–3 °C	reduced the uptake	weakest downregulation	weakest downregulation
